Measurements: patent publication US20140235630A1, “COMPOSITIONS AND METHODS FOR THE TREATMENT OF PROLIFERATIVE DISEASES” (Beth Israel Deaconess Medical Center, Inc., priority 2011, published 2014)

System: breast cancer cells isolated from tumors of MMTV-CreBRCA1^f/fp53+/− mice
Experiment: Rad51 foci immunofluorescence after ionizing radiation
Type: cell-based, mouse
Conditions: pre-treatment, 10 Gy, 6 hours post-irradiation
Experimental: FIGS. 5B-5E are immunofluorescence images of breast cancer cells isolated from primary tumors from MMTV-CreBRCA1^f/fp53+/− mice either treated with vehicle control (5B and 5C) or Compound A (5D and 5E) for 18 hours, followed by irradiation with 10 Gy IR 6 hours later cells, using antibodies against Rad51 and counterstained with DAPI. Rad51 foci are depicted as lighter punctuate signals within the cells (5C).
Cells were plated on coverslips in a 6-well plates and incubated overnight at 37° C. with 5% CO2 before drug treatment. Cells were exposed to 5-(2,6-dimorpholinopyrimidin-4-yl)-4-(trifluoromethyl)pyridin-2-amine (Compound A) for […] followed by irradiation (10 Gy). Cells were fixed with 3% paraformaldehyde and 2% sucrose diluted in PBS 6 h post-irradiation and subsequently permeabilized with 0.5% TritonX-100 buffer (20 mM HEPES pH7.4, 50 mM NaCl, 3 mM MgCl, 300 mM sucrose) for 3 minutes on ice. Cells were incubated with a primary rabbit anti human Rad-51 antiserum at 1:500 dilution in hybridization buffer (5% goat serum, 0.5% NaN3, 1×PBS) for 30 min at 37° C. and subsequently washed thrice in PBS before incubation with secondary antibody for 30 minutes at 37° C. Secondary antibody used was a donkey anti-rabbit Alexafluor 488 conjugated (Invitrogen) at a concentration of 1:50. […]

SMILES: Nc1cc(C(F)(F)F)c(-c2cc(N3CCOCC3)nc(N3CCOCC3)n2)cn1 [Compound A, 5-(2,6-dimorpholinopyrimidin-4-yl)-4-(trifluoromethyl)pyridin-2-amine]
- formation of Rad51 foci in response to ionizing radiation: completely blocked
